Literature values, collected in patent publication US8575155B2, “Composition and method to modify sperm function and increase male gender ratio in mammals” (priority 2008, dated 2013).

Key:
[1] = system: early-staged mouse embryos

## CCN(CC)c1cc2c(cc1C)Nc1ccc(N)cc1O2 [BCB, 2-methyl-3-diethylamino-7-amino phenoxazine]
Bovine oocytes
  increase in oxidation of glucose through the HMS: 15 fold
Bovine oocytes; compared with the increase through the HMS
  increase in glucose oxidation through glycolysis: somewhat less increase
[1]
  toxicity of BCB and its metabolites: relatively non-toxic
